ChEMBL document CHEMBL3137667, “[Drug-induced liver injury; fourteenth updated edition of the bibliographic database of liver injuries and related drugs]” (Gastroenterol Clin Biol, 2004)

Experiments:
[1] = human
[2] = human, serum, 4383 h
[3] = human; remark: listed apart in the source
[4] = human; remark: listed apart in the source
[5] = human; remark: listed apart in the source
[6] = Comments (NB not yet translated). [column 'COMMENTAIRES' in source]; conditions: human
[7] = human, serum
[8] = human; remark: listed apart in the source
[9] = Highest frequency of moderate liver toxicity observed during clinical trials, expressed as a percentage. [column '% BIOL' in source]; conditions: human
[10] = human, serum; remark: listed apart in the source
[11] = human; remark: listed apart in the source
[12] = human; remark: listed apart in the source
[13] = Proposed mechanism(s) of liver damage. [column 'MEC' in source]; conditions: human
[14] = Highest frequency of acute liver toxicity observed during clinical trials, expressed as a percentage. [column '% AIGUE' in source]; conditions: human
[15] = human; remark: listed apart in the source
[16] = human; remark: listed apart in the source
[17] = Times to onset, minimal and maximal, observed in the indexed observations. [column 'DELAI' in source]; conditions: human
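Wherever Hepatotoxicity (association with vascular disease) is given: count of indexed literature references reporting vascular liver injury in humans, e.g. peliosis hepatitis, hepatic veno-occlusive disease or Budd-Chiari syndrome.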
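Wherever Hepatotoxicity (benign tumour) is given: value is a count of indexed literature references citing a benign tumour confirmed by histopathology.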
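Wherever Hepatotoxicity (choleostasis) is given: human cholestatic liver injury, shown by histopathology or by peak ALT or AST elevation over alkaline phosphatase ratio below 2, value counts indexed literature reports.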
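Wherever Hepatotoxicity (chronic liver disease) is given: chronic liver injury confirmed by histopathology or persistently raised serum aminotransferase activity beyond 6 months, value given as the count of indexed literature references.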
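Wherever Hepatotoxicity (cirrhosis) is given: value is a count of indexed literature references reporting cirrhosis confirmed by histopathology.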
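Wherever Hepatotoxicity (cytolytic) is given: human cytolytic liver injury, shown by histopathology or by a ratio above 5 of peak ALT or AST elevation to alkaline phosphatase elevation, value counts indexed references.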
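Wherever Hepatotoxicity (granulomatous hepatitis) is given: value is a count of indexed literature references reporting granulomatous liver disease confirmed by histopathology.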
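Wherever Hepatotoxicity (malignant tumour) is given: malignant tumour confirmed by histopathology, value gives the count of indexed literature references reporting it.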
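Wherever Hepatotoxicity (severe hepatitis) is given: human clinical data: severe hepatitis, meaning potentially life-threatening liver failure or clinically observed cases, the value counts how many indexed literature references report it.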
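Wherever Hepatotoxicity (steatosis) is given: steatosis confirmed by histopathology, value is the count of indexed references.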

| Compound | Hepatotoxicity (association with vascular disease) [1] | Hepatotoxicity (chronic liver disease) [2] | Hepatotoxicity (cytolytic) [3] | Hepatotoxicity (granulomatous hepatitis) [4] | Hepatotoxicity (benign tumour) [5] | Hepatotoxicity (comment) [6] | Hepatotoxicity (acute) [7] | Hepatotoxicity (choleostasis) [8] | Hepatotoxicity (moderate) [9] [%] | Hepatotoxicity (moderate) [10] | Hepatotoxicity (cirrhosis) [11] | Hepatotoxicity (steatosis) [12] | Hepatotoxicity (mechanism) [13] | Hepatotoxicity (acute) [14] [%] | Hepatotoxicity (severe hepatitis) [15] | Hepatotoxicity (malignant tumour) [16] | Hepatotoxicity (time to onset) [17] | also measured |
| --- | --- | --- | --- | --- | --- | --- | --- | --- | --- | --- | --- | --- | --- | --- | --- | --- | --- | --- |
| Nc1nnc(-c2cccc(Cl)c2Cl)c(N)n1 [LAMOTRIGINE] | 0 | 0 | 12 | 0 | 0 | DUCTOPENIE CHOLESTASE_PROLONGEE | 17 | 1 | 7.7 | 7 | 0 | 0 | Allergic | 0 | 9 | 0 | 5 days - 3 months |  |
| NCCCC[C@H](N[C@@H](CCc1ccccc1)C(=O)O)C(=O)N1CCC[C@H]1C(=O)O [LISINOPRIL ANHYDROUS] | 0 | 1 | 2 | 0 | 0 | AC_ANTI-ML RC/LISINOPRIL | 3 | 0 | 7.7 | 4 | 0 | 0 | Allergic | 0 | 1 | 0 | 9 days - 5 months |  |
| COc1ccc2[nH]cc(CCNC(C)=O)c2c1 [MELATONIN] | 0 | 0 | 1 | 0 | 0 | AC_ANTI-ML | 1 | 0 | 0 | 0 | 0 | 0 | Allergic | 0 | 0 | 0 | 3 weeks |  |
| COc1ccc2cc([C@H](C)C(=O)O)ccc2c1 [NAPROXEN] | 0 | 0 |  |  | 0 | RC/FENOPROFENE | 19 |  |  | 13 | 0 | 1 |  |  |  | 0 | 2 days - 2 months | Hepatotoxicity (cytolytic) ([3]; Liver): 8; Hepatotoxicity (granulomatous hepatitis) ([4]; Liver): 1; Hepatotoxicity (choleostasis) ([8]; Liver): 8; Hepatotoxicity (moderate) ([9]; Liver): 9.5%; Hepatotoxicity (mechanism) ([13]; Liver): Allergic; Hepatotoxicity (acute) ([14]; Liver): 1.1%; Hepatotoxicity (severe hepatitis) ([15]; Liver): 4 |
| Fc1ccc([C@@H]2CCNC[C@H]2COc2ccc3c(c2)OCO3)cc1 [PAROXETINE] | 0 | 1 | 5 | 0 | 0 | AC_ANTI-N I/ATRIUM* RC/DOSULEPINE | 8 | 2 | 11 | 6 | 0 | 0 | Allergic | 2 | 1 | 0 | 6 days - 15 months |  |
| CC(=O)Nc1ccc(OCC(O)CNC(C)C)cc1 (stereo not given) [PRACTOLOL] | 0 | 0 | 0 | 0 | 0 | AC_ANTI-N/-M #CBP | 0 | 0 | 0 | 0 | 1 | 0 | Allergic | 0 | 0 | 0 | 16 months - 4 years |  |
| C[C@]12C=CC(=O)C=C1CC[C@@H]1[C@@H]2C(=O)C[C@@]2(C)[C@H]1CC[C@]2(O)C(=O)CO [PREDNISONE] | 0 | 0 | 0 | 0 | 1 | AGGRAVATION/REACTIVATION_HVB HNF LITHIASE | 0 | 0 | 80 | 1 | 0 | 0 | Dose-dependant | 0 | 1 | 0 | 10 months |  |
| CN(C)CCCN1c2ccccc2Sc2ccccc21 [PROMAZINE] | 0 | 0 | 0 | 0 | 0 | RC/CHLORPROMAZINE | 6 | 6 | 0 | 1 | 0 | 0 | Allergic | 0 | 0 | 0 | 2 days - 2 months |  |
| CC(C)NCC(O)COc1cccc2ccccc12 (stereo not given) [PROPRANOLOL] | 0 | 0 | 4 | 0 | 0 | CHOLANGIOLITE ENCEPHALOPATHIE | 5 | 3 | 10 | 5 | 0 | 0 | Allergic | 0 | 0 | 0 | 1 month - 9 months |  |
| CCCc1cc(C(N)=S)ccn1 [PROTIONAMIDE] | 0 | 0 | 4 | 0 | 0 | I/PILULE | 7 | 0 | 13 | 8 | 0 | 0 | Dose-dependant | 2.5 | 2 | 0 | 3 months - 1 year |  |
